# Experimental data taken from PubChem BioAssay (NCI).
#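 Each compound was tested at five concentrations against cells in 96-well plates for 48 hours. TGI denotes the concentration required for complete inhibition of growth.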
# Columns and labels:
# Assay in all cases: inhibition of tumour cell growth, NCI panel, 48 h
# UACC-62 melanoma = test system: UACC-62 melanoma
# ACHN renal = test system: ACHN renal
# RXF 393 renal = test system: RXF 393 renal
# OVCAR-3 ovarian = test system: OVCAR-3 ovarian
# NCI-H522 lung = test system: NCI-H522 lung
# SNB-19 CNS = test system: SNB-19 CNS
# OVCAR-5 ovarian = test system: OVCAR-5 ovarian
# A498 renal = test system: A498 renal
# NCI-H23 lung = test system: NCI-H23 lung
# NCI-H460 lung = test system: NCI-H460 lung
# SK-MEL-5 melanoma = test system: SK-MEL-5 melanoma
# HOP-62 NSCLC = test system: HOP-62 NSCLC
# A549 NSCLC = test system: A549 NSCLC
# NCI/ADR-RES ovarian = test system: NCI/ADR-RES ovarian
# IGROV1 ovarian = test system: IGROV1 ovarian
# RPMI-8226 leukemia = test system: RPMI-8226 leukemia
# MDA-N = test system: MDA-N
# SNB-75 CNS = test system: SNB-75 CNS
# HL-60(TB) leukemia = test system: HL-60(TB) leukemia
SMILES,TGI (UACC-62 melanoma) [µM],TGI (ACHN renal) [µM],TGI (RXF 393 renal) [µM],TGI (OVCAR-3 ovarian) [µM],TGI (NCI-H522 lung) [µM],TGI (SNB-19 CNS) [µM],TGI (OVCAR-5 ovarian) [µM],TGI (A498 renal) [µM],TGI (NCI-H23 lung) [µM],TGI (NCI-H460 lung) [µM],TGI (SK-MEL-5 melanoma) [µM],TGI (HOP-62 NSCLC) [µM],TGI (A549 NSCLC) [µM],TGI (NCI/ADR-RES ovarian) [µM],TGI (IGROV1 ovarian) [µM],TGI (RPMI-8226 leukemia) [µM],TGI (MDA-N) [µM],TGI (SNB-75 CNS) [µM],TGI (HL-60(TB) leukemia) [µM]
Cc1ccc2c(c1)C(=O)N1CCC[C@H]1C=N2,34.7,> 70.9,16.1,> 67.2,22.5,> 100,> 93.1,> 100,39.7,> 71.6,26.7,> 83.1,> 100,> 64,> 66.3,> 53.3,37.6,,
CCCC(=O)O[C@H]1C=C2C[C@@]34SS[C@]5(CC6=C[C@H](OC(C)=O)[C@@H]7O[C@@H]7[C@H]6N5C3=O)C(=O)N4[C@@H]2[C@H]2O[C@H]21,0.0851,0.0391,0.0713,0.0314,,1.43,0.251,0.0697,0.291,0.379,0.655,0.0892,1.68,0.442,0.0499,2.29,0.0314,0.331,2.71
Brc1c(C#CCC(c2ccccc2)(c2ccccc2)c2ccccc2)ccc(C#CCC(c2ccccc2)(c2ccccc2)c2ccccc2)c1Br,> 100,> 100,> 100,> 100,> 100,> 100,> 100,> 100,> 100,> 100,> 100,,> 100,> 100,> 100,> 100,> 100,> 100,> 100
Cc1cc(N=Nc2c(O)ccc3ccccc23)ccc1N=Nc1cccc([N+](C)(C)C)c1,> 61.6,> 84.7,48.7,41,> 26.1,26,60.8,98.8,52,30.9,> 23.7,43.2,> 52.2,> 100,> 22.2,> 46.5,> 100,26.3,
CC(=O)Oc1cc2c(c3ncccc13)OC(C)(C)C2,> 100,23.9,26.8,55,8.26,,29,33,> 100,31.3,25.4,30.6,27.4,23.9,12.4,> 100,10.9,17.2,
C/C(=N\Nc1nc2ccccc2n1C)c1cnccn1,,> 100,> 100,2.75,> 35.8,> 100,> 100,> 63.3,> 100,> 100,10,37,> 100,3.14,,,> 100,> 100,0.058
O=C(Nc1nn(C(=O)c2ccc(Cl)cc2)c(=O)s1)c1ccc(Cl)cc1,> 100,> 100,> 100,> 100,> 100,> 100,> 100,> 100,> 100,> 100,> 100,> 100,> 100,> 100,> 100,,> 100,,> 100
CCN(CC)C(=S)SS(=O)(=O)c1ccc(Cl)cc1,> 100,> 100,39.2,> 100,0.0995,> 100,> 100,> 100,> 100,> 100,30.9,65.7,> 100,> 100,,43.2,> 100,,
CC(C)(C)OC(=O)N(O)CCCn1cnc2c(N)ncnc21,> 100,> 100,> 100,> 100,> 100,> 100,> 100,> 100,> 100,> 100,> 100,> 100,> 100,> 100,> 100,> 100,> 100,> 100,
COC(C(=O)C(O)C(C)O)C1CC2C=C3C=C(OC4CC(OC5CC(O)C(OC)C(C)O5)C(OC(C)=O)C(C)O4)C(C)C(=O)C3=C(O)C2=C(O)C1OC1CC(OC2CC(OC3CC(C)(O)C(OC(=O)C(C)C)C(C)O3)C(O)C(C)O2)C(O)C(C)O1 (stereo not drawn),< 0.01,,< 0.01,,< 0.01,,,< 0.01,< 0.01,,< 0.01,< 0.01,,0.425,> 100,< 0.01,< 0.01,< 0.01,< 0.01
COc1cc(NC(C)=O)ccc1C(=O)NN1C(=O)C(Cl)C1c1ccco1 (stereo not drawn),> 100,> 100,> 100,> 100,> 100,> 100,> 100,> 100,> 100,,> 100,,> 100,> 100,> 100,> 100,> 100,> 100,> 100
C/C=C\C(CC(=O)NCCC1CN(S(=O)(=O)C(F)(F)F)c2ccccc21)CC(=O)OC (stereo not drawn),> 100,> 100,> 100,> 100,52,> 100,> 100,> 100,> 100,> 100,41.4,> 100,> 100,> 100,> 100,> 100,> 100,,
CN1CCCCC(C#N)(c2ccccc2)CC1 (stereo not drawn),,> 100,> 100,,,> 100,> 100,> 100,> 100,> 100,> 100,> 100,> 100,> 100,> 100,> 100,> 100,> 100,> 100
COc1ccc(/C=C2\CCC(C)/C(=C\c3ccc(OC)c(OC)c3)C2=O)cc1OC (stereo not drawn),23.1,16.7,24.2,> 100,,39.3,26.6,25.3,15.6,,17.5,,,32.5,14.6,8.01,> 100,,5.93
CCOC(=O)c1c(C)cc(=O)n2c1[nH]c1ccccc12,> 100,> 100,> 100,> 100,,> 100,> 100,> 100,> 100,> 100,> 100,,> 100,> 100,> 100,,> 100,,> 100
CC=CCOc1cc(NC(=S)OC(C)C)ccc1Cl (mixture of isomers),30.7,31.6,30.8,38.1,28,56.6,44.5,30.7,35.1,31.8,33.1,45.4,33.1,31.9,43.2,> 100,35.4,,55.7
N#CC(=C1CCCCC1)c1nc2ccccc2o1,> 100,> 100,> 100,> 100,60.6,> 100,> 100,> 100,> 100,> 100,> 100,> 100,> 100,> 100,> 100,71.3,> 100,,75
CCOC(=O)c1sc(N/N=C2\NC(=O)/C(=C/c3ccc([N+](=O)[O-])cc3)S2)nc1C,73.4,58.3,84,49.9,40.9,> 100,> 100,58.5,80.5,48.2,31,38,> 100,66.1,35.4,,56.2,74.6,51.8
O=C1CC(=O)NC(=NN2C(=O)/C(=C/c3ccccc3)N=C2c2ccccc2)N1,96.5,> 100,> 100,> 100,> 100,,> 100,> 100,> 100,> 100,> 100,> 100,> 100,> 100,> 100,> 100,> 100,> 100,
Oc1ccccc1C=Nc1ccc(-c2nc3ccccc3[nH]2)cc1,,> 100,> 100,> 100,> 100,> 100,> 100,> 100,> 100,> 100,> 100,> 100,> 100,53.2,> 100,> 100,> 100,> 100,> 100
O=C1N2CCc3c([nH]c4ccccc34)C23CC2CCCCC12S3 (stereo not drawn),> 100,> 100,> 100,> 100,> 100,> 100,> 100,> 100,> 100,,> 100,> 100,> 100,> 100,> 100,> 100,> 100,,> 100
